Measurements from patent publication US5824679A, “Phosphanoxides--preparation and use” (Boehringer Mannheim GmbH, priority 1994, dated 1998).

Legend:
[1] = molecular target: T1, human α thrombin (Homo sapiens, UniProt P00734); test: Thrombin inhibition, kinetic measurement with substrate H-(D)-Phe-Pro-Arg-pNA; format: biochemical; settings: 0.1M phosphate buffer, 0.2M sodium chloride, 0.5% polyethylene glycol 6000, pH=7.5, 25° C.
T1 construct: human α thrombin; purchased Sigma
Procedure: The kinetic measurements were carried out in 0.1M phosphate buffer that contained 0.2M sodium chloride and 0.5% polyethylene glycol 6000 at a pH=7.5 and 25° C. with the substrate H-(D)-Phe-Pro-Arg-pNA; Kabi and human α thrombin (Sigma, specific activity=2150 NIH-units/mg) in polystyrene semi-microcuvettes in a total volume of 1 ml.
In a preliminary test each active substance was determined as to whether it inhibits thrombin rapidly or slowly. For this the reaction was firstly started by adding 0.03 NIH units thrombin to a 100 μM solution of the substrate and the active substance. In a second experiment, substrate was added to a solution of thrombin and the active substance which had been incubated for 5 minutes. The increase in the concentration of p-nitroaniline with time was monitored spectroscopically (UV-VIS spectrophotometer Lambda-2 from the Perkin-Elmer Company) at 405 nm for 12 min.
Since the measured curves obtained in both experiments were linear and parallel, the active substances of the following table are rapid thrombin inhibitors.
The inhibition constants Ki were then determined as follows. The substrate was used at concentrations of 100 μM, 50 μM, 30 μM, 20 μM and at each substrate concentration a measurement was carried out without inhibitor and three measurements were carried out in the presence of various concentrations of the inhibitors listed in the following table. The reactions were started by adding thrombin. The increase in absorbance at 405 nm due to the formation of p-nitroaniline was monitored over a time period of 12 minutes. Measurement points (time versus absorbance) were transferred to a PC at intervals of 20 seconds. The rates VO (change in absorbance per second; measurements without inhibitor) and Vi (measurements with inhibitor) were determined by linear regression. Only that part of the measurement was used in which the substrate concentration had decreased by less than 15%. Km ' and Vmax were determined from a measurement series (constant inhibitor concentration, variable substrate concentrations) by a non-linear fit to the equation [formula]
Finally Ki was calculated from the entire series of measurements by a non-linear fit to the equation [formula]
The Michaelis constant Km was 3.8±2 μm in all measurements.
The inhibition constants Ki of the active substances are stated in the following table in units of μM.

[2] = tested on: horse thrombin; test: Thrombin time (clotting of human citrate plasma on addition of thrombin reagent, ball coagulometer); format: biochemical, human plasma; horse thrombin; settings: 37° C., difference to control (ca. 24 sec); for TT0.5 (thrombin time, difference to the control): 0.5 μM in human plasma; for TT5 (thrombin time, difference to the control): 5 μM in human plasma
Procedure: A conventional test in clinical coagulation diagnostics is the thrombin time. This parameter measures the action of thrombin on fibrinogen and the formation of clots. Inhibitors of thrombin result in an extended thrombin time.
In order to obtain plasma 9 parts of fresh blood from healthy donors was mixed with one part of sodium citrate solution (0.11 mol/l) and it was centrifuged for 10 minutes at room temperature at ca. 3000 r.p.m. The plasma was removed by pipette and can be stored at room temperature for ca. 8 hours.
200 μl citrate plasma was incubated for 2 minutes at 37° C. in a ball coagulometer (KC10 from the Amelung Company). 10 μl dimethylsulfoxide (DMSO) or a solution of the active substance in DMSO was added to 190 μl pre-heated thrombin reagent (Boehringer Mannheim GmbH; contains ca. 3 U/ml horse thrombin and 0.0125M Ca^++). On addition of 200 μl of this solution to the plasma a stopwatch was started and the time at which coagulation starts was determined.
The measured thrombin times in seconds are given in the following table as a difference to the control. The concentrations of the active substances in human plasma were 5 μM (TT5) and 0.5 μM (TT0.5).

SMILES | Ki [1] | TT0.5 (thrombin time, difference to the control) [2] | TT5 (thrombin time, difference to the control) [2]
CCCCOc1ccccc1S(=O)(=O)N(CP(C)(C)=O)c1cc(C)cc(OCCNc2ccncc2)c1 [Example 3, N-(Dimethyloxophosphinylmethyl)-N-{3-methyl-5-[2-(pyridin-4-ylamino)-ethoxyl]-phenyl}-2-butoxy-benzene-sulfonamide] | 4 nM | 50 s | 300 s
CCCOc1ccccc1S(=O)(=O)N(CP(C)(C)=O)c1cc(C)cc(OCCNc2ccnnc2)c1 [Example 6] | 28 nM | 18 s | 122 s
Cc1cc(OCCNc2ccnnc2)cc(N(CP(C)(C)=O)S(=O)(=O)c2ccccc2OC(C)C)c1 [Example 8] | 35 nM | 47 s | 180 s
COc1ccccc1S(=O)(=O)N(CP(C)(C)=O)c1cc(C)cc(OCCNc2ccncc2)c1 [Example 2, N-(Dimethyloxophosphinvlmethyl)-N-{3-methyl-5-[2-(pyridin-4-ylamino)-ethoxyl]-phenyl}-2-methoxy-benzene-sulfonamide] | 8 nM | 115 s | 300 s
CCCCCCOc1ccccc1S(=O)(=O)N(CP(C)(C)=O)c1cc(C)cc(OCCNc2ccncc2)c1 [Example 4, N-(Dimethyloxophosphinylmethyl)-N-{3-methyl-5-[2-(pyridin-4-ylamino)-ethoxyl]-phenyl}-2-hexyloxy-benzene-sulfonamide] | 12 nM | 11 s | 113 s
Cc1cc(OCCNc2ccncc2)cc(N(CP(C)(C)=O)S(=O)(=O)c2ccccc2)c1 [Example 1, N-(Dimethyloxophosphinylmethyl)-N-{3-methyl-5-[2-(pyridin-4-ylamino)-ethoxyl]-phenyl}-benzene sulfonamide] | 100 nM | 33 s | 175 s
CCOc1ccccc1S(=O)(=O)N(CP(C)(C)=O)c1cc(C)cc(OCCNc2ccnnc2)c1 [Example 7] | 60 nM | 14 s | 109 s
